Measurements: paper PMC6934184, “Selective DNA-PKcs inhibition extends the therapeutic index of localized radiotherapy and chemotherapy” (The Journal of Clinical Investigation, 2019)

Target: T1, PKN2 (PRK2) (Homo sapiens, UniProt Q16513)
T1 construct: purchased Thermo Fisher Scientific (Life Technologies) SelectScreen
Experiment: SelectScreen LanthaScreen
Format: binding
Conditions: read-out: % displacement
How it was run: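 Percent values come from Thermo SelectScreen profiling of NU5455, combining activity and binding assays. CSF1R was run in Z'LYTE format at Km app ATP, and CAMK1 in Adapta format with ATP listed at 10.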

T1 sequence (Q16513 whole entry): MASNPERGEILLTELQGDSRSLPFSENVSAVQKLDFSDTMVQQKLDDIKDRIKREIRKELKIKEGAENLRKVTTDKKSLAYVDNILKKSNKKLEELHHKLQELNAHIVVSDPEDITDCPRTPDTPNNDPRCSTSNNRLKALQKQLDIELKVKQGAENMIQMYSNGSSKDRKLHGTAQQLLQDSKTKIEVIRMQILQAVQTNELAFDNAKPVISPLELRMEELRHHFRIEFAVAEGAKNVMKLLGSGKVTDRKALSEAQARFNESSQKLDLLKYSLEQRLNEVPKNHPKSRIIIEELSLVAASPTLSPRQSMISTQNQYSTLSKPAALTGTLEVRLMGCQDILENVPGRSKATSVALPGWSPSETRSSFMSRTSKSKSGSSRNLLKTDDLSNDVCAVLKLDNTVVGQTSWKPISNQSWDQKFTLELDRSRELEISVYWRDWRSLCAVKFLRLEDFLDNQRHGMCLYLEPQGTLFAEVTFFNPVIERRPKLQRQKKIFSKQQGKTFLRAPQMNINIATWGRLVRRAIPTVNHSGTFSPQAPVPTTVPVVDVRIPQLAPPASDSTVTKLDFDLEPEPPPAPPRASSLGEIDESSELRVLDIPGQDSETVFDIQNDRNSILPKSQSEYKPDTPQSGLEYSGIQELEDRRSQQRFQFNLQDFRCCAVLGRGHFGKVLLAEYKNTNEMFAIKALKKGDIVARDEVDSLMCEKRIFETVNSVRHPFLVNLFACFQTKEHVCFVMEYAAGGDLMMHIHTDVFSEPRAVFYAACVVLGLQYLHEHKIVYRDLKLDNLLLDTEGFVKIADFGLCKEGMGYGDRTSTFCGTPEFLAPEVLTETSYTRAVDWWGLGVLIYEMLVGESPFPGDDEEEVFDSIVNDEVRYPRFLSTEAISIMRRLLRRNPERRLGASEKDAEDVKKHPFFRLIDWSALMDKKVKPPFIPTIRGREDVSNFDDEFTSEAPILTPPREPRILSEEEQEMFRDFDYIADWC

Work on `CN(C(=O)CN1CCOCC1)c1ccc2sc3c(-c4cccc5c(=O)cc(N6CC7CCC(C6)O7)oc45)cccc3c2c1` [NU5455] yielded an inhibition at 1 µM of -1%.
